Laboratory results reported in the NIST ThermoML archive (doi:10.1021/je020163y).
Numbers after ± are expanded uncertainties.

Details: Crystal; visual observation

| Normal melting temperature | SMILES |
| --- | --- |
| 240 ± 4 °C | Cc1cc(O)c2c(=O)c3ccccc3sc2c1O [1,4-dihydroxy-3-methylthioxanthone] |
| 149 ± 1 °C | Cc1cc(O)c2c(=O)c3ccccc3sc2c1 [1-hydroxy3-methylthioxanthone] |
| 119 ± 1 °C | O=c1c2ccccc2sc2cccc(O)c12 [1-hydroxythioxanthone] |
| 209 ± 2 °C | O=c1c2ccccc2sc2ccccc12 [thioxanthone] |
